# From patent US20250000822A1, “USE OF 2-HYDROXYBENZYLAMINE FOR THE TREATMENT OF SYSTEMIC LUPUS” (Vanderbilt University, priority 2019, published 2025)
# “Also recorded” adds a separate entry of the source.
# Key:
# [1] = in vitro, in animals, or in humans, to date; cited from earlier work
# healthy human volunteers [2] = conditions: 500 and 750 mg TID for 2 weeks; cited from earlier work
# HepG2 cells = experiment: protection of HepG2 cells against H2O2-induced cytotoxicity; format: cell-based
# Source text: (§1) 2-HOBA, for example, is naturally found in buckwheat seeds. 2-HOBA is highly reactive and found to react with isoLGs at a rate more than 3 orders of magnitude faster than the e-amine of lysine (see FIG. 3). By selectively reacting with isoLGs, 2-HOBA inhibits isoLG:protein adduct formation and subsequent isoLG-induced cell dysfunction.
# B6.SLE123 mice [3] = experiment: SLE-associated renal injury and dysfunction, B6.SLE123 mice; format: in vivo
# Description: Kidneys were sectioned and stained with […] silver stain; (A) representative glomeruli are presented. (B) Mice received IP injection of 4% normal saline at 10% of body weight and urine output was measured over 4 hours. (C) Urine albumin/creatine ratio. (D) Urinary NGAL. (n=6-8, *P<0.05, **P<0.01, ****P<0.0001).
# The present inventors have also shown that 2-HOBA protects against SLE-associated renal injury and dysfunction. […] To assess renal function, 2-HOBA treated and untreated B6.SLE123 animals were injected with 4% normal saline at a volume equal to 10% of their body weight, and urine volume was measured over 4 hours.
# healthy human volunteers [4] = conditions: single doses up to 825 mg (highest dose tested); cited from earlier work
# [5] = reaction of 2-HOBA with isoLGs (isoLG scavenging)
# Source text: as §1
# B6.SLE123 mice [6] = experiment: isoLG adduct accumulation in monocytes and dendritic cells of SLE-prone mice (flow cytometry); format: in vivo; conditions: B6.SLE123 mice treated from 7 weeks of age, analysed at 32 weeks
# Description: Quantitation of isoLG-adduct containing cells in (C) splenic DCs (D) circulating monocytes. (n=5-9, *P<0.05, **P<0.01, ***P<0.001, ****P<0.0001).
# The present inventors have also shown that 2-HOBA reduces isoLG accumulation in monocytes and dendritic cells (DCs) of SLE-prone mice. B6.SLE123 mice were treated with 2-HOBA starting at 7 weeks of age (prior to disease presentation). At 32 weeks of age, peripheral blood, spleen, and bone marrow cells were harvested from B6.SLE123 and control (C57BL/6) mice. Flow cytometry was used to detect the surface markers CD11c, IAb, CD11b, F4/80, and Ly6c and isoLG adducts.
# B6.SLE123 mice [7] = experiment: SLE-associated renal inflammation, B6.SLE123 mice; format: in vivo
# Description: Single cell suspensions were prepared from freshly isolated mouse kidney via enzymatic digestion and mechanical dissociation. Live cell singlets were analyzed. Representative FACS plots are presented for (A) CD3^+ T-cells. Quantitation of (B) CD45^+ leukocytes and (C) CD3^+ T-cells are represented. (n=6-8, *P<0.05, **P<0.01).
# The present inventors have also shown that 2-HOBA reduces SLE-associated inflammation.
# B6.SLE123 mice [8] = experiment: plasma cell expansion and antibody titers, B6.SLE123 mice; format: in vivo
# Description: (A) Representative FACS plots displaying CD138^+ and intracellular Igκ-light-chain^+ plasma cells from bone marrow. Quantitation of plasma cells as a percentage of CD45 cells are represented for (B) bone marrow. (C) Anti-dsDNA IgG antibody and (D) total plasma IgG at 1:100K dilution were analyzed by ELISA. (n=5-7, *P<0.05, **P<0.01, ***P<0.001, ****P<0.0001).
# The present inventors have also shown that 2-HOBA reduces bone marrow plasma cell expansion and anti-dsDNA antibody titers. SLE is associated with an expansion of plasma cells and an amplification of auto-antibodies. Autoreactive plasma cells are believed to play an important role in SLE by generating antibodies that lead to the creation of immune complexes which deposit in peripheral tissues. Flow cytometry was performed to identify CD138^+/Igκ-light-chain^+ plasma cells in spleen and bone marrow cell preparations from B6.SLE123 animals treated with vehicle or 2-HOBA. B6.SLE123 animals had significant accumulation of spleen and bone marrow plasma cells which were attenuated by 2-HOBA (FIG. 7A-C).
# [9] = SLE-prone mice, kidney sections
# [10] = B6.SLE123, CD138+/Igκ-light-chain+ cells, flow cytometry
smiles,measurement,setting,value
"NCc1ccccc1O [2-HOBA, 2-hydroxybenzylamine]",serious adverse effects or potential issues observed,[1],no serious adverse effects or potential issues
same,accumulation of 2-HOBA and its primary metabolite,healthy human volunteers [2],low
same,serious adverse events,healthy human volunteers [2],no serious adverse events
same,tolerability of multiple doses,healthy human volunteers [2],well tolerated
same,protection against H2O2-induced cytotoxicity,HepG2 cells,dramatically protected
same,albumin to creatinine ratio,"B6.SLE123 mice [3]; B6.SLE123 mice, urine",improved
same,NGAL excretion,"B6.SLE123 mice [3]; B6.SLE123 mice, urine, marker of tubular injury",improved
same,urine volume,"B6.SLE123 mice [3]; B6.SLE123 mice, over 4 hours after injection of 4% normal saline at 10% of body weight",improved
same,glomerular hypercellularity,B6.SLE123 mice [3]; [9],markedly improved
same,immune complex deposition,B6.SLE123 mice [3]; [9],markedly improved
same,renal injury and dysfunction,B6.SLE123 mice [3]; mouse model of SLE (FIG. 6 legend),attenuates
same,safety and tolerability of single doses,healthy human volunteers [4],safe and well-tolerated
same,isoLG scavenging,[5],potent isoLG scavengers
same,"rate of reaction with isoLGs, faster than the e-amine of lysine",[5]; relative to e-amine of lysine,more than 3 orders of magnitude
same,isoLG accumulation in monocytes,B6.SLE123 mice [6]; peripheral blood monocytes,efficient scavenging; also recorded: significantly attenuated
same,isoLG accumulation in DCs,B6.SLE123 mice [6]; splenic dendritic cells,efficient scavenging; also recorded: significantly attenuated
same,renal inflammation,B6.SLE123 mice [7],markedly reduced
same,renal CD3+ T-cells,"B6.SLE123 mice [7]; kidney, flow cytometry",reduction
same,renal CD45+ cells,"B6.SLE123 mice [7]; kidney, flow cytometry",reduction
same,plasma anti-dsDNA antibody titers,"B6.SLE123 mice [8]; B6.SLE123, ELISA",reduces; also recorded: markedly lower
same,total IgG antibody titers,"B6.SLE123 mice [8]; B6.SLE123, plasma, ELISA",reduces; also recorded: markedly lower
same,accumulation of bone marrow plasma cells,B6.SLE123 mice [8]; [10],reduces; also recorded: attenuated
same,accumulation of spleen plasma cells,B6.SLE123 mice [8]; [10],attenuated
